Reference: patent publication US20050222013A1, “Methods for the use of inhibitors of histone deacetylase as synergistic agents in cancer therapy” (Georgetown University, priority 2003, published 2005)

Assays:
Format in all cases: cell-based, human
SQ-20B cells [1] = assay: Cell cycle distribution by flow cytometry (G1 phase); settings: for Duration of G1 arresting effect: about 24 hour exposure, TSA about 60 ng/ml, mimosine about 0.4 mM
Procedure: FIGS. 2A and 2B show cell cycle distributions of SQ20B cells after treatment with either TSA (FIG. 2A) or mock treatment (FIG. 2B) for 24 h. Cells were washed with fresh medium and exposed to about 10 Gy ionizing radiation. Cell nuclei were prepared for flow cytometric analysis using the procedure of Vindelov et al. (46). The samples were analyzed on a Becton-Dickinson FACStarplus instrument and the percentage of nuclei with G1, S, and G2/M DNA content was determined. […] The radiation sensitivity of cells is a function of the cell cycle. The lethal effect of radiation exposure is often observed only after subsequent cell division. Accordingly, the G1 phase is the more radiation sensitive phase. The compounds employed in the invention are observed to maintain cells in the G1 phase following radiation exposure. Comparing FIG. 2A to FIG. 2B, it can be seen that exposure of SQ-20B cells to TSA for about 24 hours prior to radiation results in an accumulation of more than about 70% of cells in the G1 phase and a maintenance of about 50% of cells for about 12 hours. After treatment with either TSA (panel A) or mock treatment (panel B) for about 24 h, cells were washed with fresh medium and exposed to about 10 Gy ionizing radiation. Cell nuclei were prepared for flow cytometric analysis. The samples were analyzed on a Becton-Dickinson FACStarplus® instrument and the percentage of nuclei with G1, S, and G2/M DNA content was determined. By comparison, irradiated mock-treated cells are not arrested.

SQ-20B cells [2] = assay: Clonogenic survival after ionizing radiation, fit to the single hit multitarget and linear quadratic models; design: α (linear quadratic model) / β (linear quadratic model) / Do (multitarget model radiosensitivity): unit not given here; settings: for Do (multitarget model radiosensitivity) / α (linear quadratic model) / β (linear quadratic model): SQ-20B cells treated with drug at IC50, then gamma radiation
Procedure: Logarithmically growing SQ-20B cells were treated with TSA (about 60 ng/ml) for about 24 h and the medium was replaced with fresh medium. Cells were exposed to a graded dose of gamma radiation. A semi-logarithmic plot of the data for these cells is shown. Clonogenic survival numbers were determined and fit to the single hit multitarget and the linear quadratic models for analysis, measured by clonogenic survival analysis. Points and bars represent mean+/−SEM from triplicate flasks in each experiment.
The effectiveness of a particular treatment can be determined by measuring the radiation survival. Post treatment survival can be studied both in vitro and in vivo. For example, for in vitro determinations, exponentially growing cells can be exposed to known doses of radiation and the survival of the cells monitored. Irradiated cells are plated and cultured for about 14-about 21 days, and the colonies are stained. The surviving fraction is […]. Graphing the surviving fraction on a log scale versus the absorbed dose on a linear scale generates a survival curve. Survival curves generally show an exponential decrease in the fraction of surviving cells at higher radiation doses after an initial shoulder region in which the dose is sublethal. A similar protocol can be used for chemical agents.
Two mathematical models are commonly employed to analyze radiation survival data. A first model is the multi-target model. In this analysis, the reciprocal of the slope of the survival curve is defined as D0, the radiosensitivity of the cell population or tissue under investigation. D0 is the dose required to reduce the surviving fraction to about 37% in the exponential portion of the survival curve. The extrapolation of the linear portion of the curve to the y-intercept is denoted n. The width of the shoulder region is represented by drawing a line from the 100% survival point to the extrapolation line, this width is denoted Dq. Dq is the quasi-threshold dose, or the point at which the reduction in surviving fraction as a function of radiation dosage becomes exponential. The Dq value can also provide an estimate of an additional total dose required for each division of a single dose therapy into fractional doses. The additional dose is required to overcome the effect of sublethal damage repair that occurs when two sublethal doses are separated in time.
The linear quadratic model (surviving fraction=[…]) is used to fit radiation survival data to a continuously bending curve, where D is dose and α and β are constants. Alpha is the linear component, a measure of the initial slope that represents single-hit killing kinetics and dominates the radiation response at low doses. Beta is the quadratic component of cell killing, that represents multiple-hit killing and causes the curve to bend at higher doses. The alpha:beta ratio is the dose at which the linear and quadratic components of cell killing are equal. The more linear the response to killing of cells at low radiation dose, the higher is the value of alpha, and the greater is the radiosensitivity of the cells.
A semi-logarithmic plot of the mean+/−SEM from triplicate flasks in each experiment for these cells is shown. Logarithmically growing SQ-20B cells were treated with TSA (about 60 ng/ml) for about 24 h and the medium was replaced with fresh medium. Cells were exposed to a graded dose of gamma radiation. Clonogenic survivals were determined and fit to the single hit multitarget and the linear quadratic models for analysis.

SQ-20B cells [3] = assay: IC50 determination by clonogenic cell kill (24 hour drug treatment, colonies scored after 2 to 3 weeks); settings: 24 hour treatment
Procedure: IC50 is defined as the concentration of the HDAC inhibitor that kills 50% of cells following treatment with the drug. To determine the IC50, a series of dilutions of drug is used over a broad range, for example 0-1.6 μg/ml. Approximately 100-400 cells are seeded into T-25 flasks in triplicate and treated with various concentrations of the drug. After a 24 hour treatment, the cells are washed with standard PBS (phosphate buffered saline) solution. Cells are then grown in fresh media for 2 to 3 weeks. Colonies are stained with crystal violet and scored. Concentrations of drugs showing 50% cell death represent the IC50 concentration.

SQ-20B cells [4] = assay: Apoptotic index
Procedure: SQ-20B cells were exposed to about 10 Gy of irradiation. Time zero refers to cells that were subjected to sham irradiation. At the indicated times thereafter, attached and floating cells were collected and the number of apoptotic cells was determined as a percentage of the total number of cells (apoptotic index). Data shown represent mean values±SD from three independent experiments.
HDAC inhibitors are known to promote cancer cell death through apoptosis in vitro and in vivo. This has been a basis for the use of HDAC inhibitors at high concentrations as a single agent in chemical therapy. However, we have determined that the amount effective to synergize radiation-induced cell death is substantially less than the amount required to promote apoptosis. […] Concentrations that produce these effects can be determined for any HDAC inhibitory compound by one of skill in the art by observation of markers of apoptosis such as, for example, the apoptotic index and caspase activities.
Treatment with TSA (about 60 ng/ml) or mock treatment was followed by radiation (about 10 Gy). At about 24, about 48, and about 72 hours, attached and floating cells were collected and the number of apoptotic cells was determined as a percentage of the total number of cells (apoptotic index).

Row | Compound | Duration of G1 arresting effect (SQ-20B cells [1]) | Do (multitarget model radiosensitivity) (SQ-20B cells [2]) | α (linear quadratic model) (SQ-20B cells [2]) | β (linear quadratic model) (SQ-20B cells [2]) | IC50 (concentration that kills 50% of cells) (SQ-20B cells [3]) | Apoptotic index, treated versus mock treated (SQ-20B cells [4]; about 60 ng/ml followed by about 10 Gy, about 24, 48, 72 hours) | Promotion of apoptosis (SQ-20B cells [4]; at about 3 to about 7 times the IC50) | Promotion of apoptosis (SQ-20B cells [4]; at concentrations of about 200-about 400 ng/ml) | Promotion of apoptosis (SQ-20B cells [4]; at the IC50 concentration of about 60 ng/ml) | Cells accumulated in the G1 phase (SQ-20B cells [1]; exposure for about 24 hours prior to radiation (about 10 Gy)) | Cells maintained in the G1 phase (SQ-20B cells [1]; maintained for about 12 hours after about 10 Gy) | Sensitization to ionizing radiation (SQ-20B cells [2]; head and neck tumor cells, at about the IC50 concentration)
1 | NC(Cn1ccc(=O)c(O)c1)C(=O)O (stereo not shown) [mimosine] | about 4 hours | – | – | – | – | – | – | – | – | – | – | –
2 | CN(C)c1ccc(C(=O)NCCCCCCC(=O)NO)cc1 [M344] | – | 1.65 | 0.077 | 0.033 | 0.32 µg/mL | – | – | – | – | – | – | –
3 | CN(C)c1ccc(C(=O)NCCCCCC(=O)NO)cc1 [MD85] | – | 2.49 | 0.024 | 0.022 | 0.1 µg/mL | – | – | – | – | – | – | –
4 | O=C(CCCCCCC(=O)Nc1ccccc1)NO [SAHA, suberonylanilide hydroxamic acid] | – | 1.88 | 0.011 | 0.031 | – | – | – | – | – | – | – | –
5 | CC(/C=C/C(=O)NO)=C\[C@@H](C)C(=O)c1ccc(N(C)C)cc1 [TSA, trichostatin A] | about 12 hours | 1.64 | 0.126 | 0.030 | about 60 ng/ml | the number of treated and untreated apoptotic cells were similar | does promote apoptosis | did promote significant apoptosis | did not promote significant apoptosis | more than 70% | about 50% | significantly sensitized head and neck tumor cells to ionizing radiation
6 | C/C=C1\NC(=O)[C@H]2CSSCC/C=C/[C@H](CC(=O)N[C@H](C(C)C)C(=O)N2)OC(=O)[C@H](C(C)C)NC1=O [FR, depsipsptide (FR 901228)] | – | 1.65 | 0.104 | 0.033 | 0.005 µg/mL | – | – | – | – | – | – | –
